In the test the test system is B16F10.A24/SART2^93-101 cells. The test is described as follows: Lung metastatic model: intravenous transplantation of B16F10.A24/SART2^93-101 cells, count of metastatic pulmonary nodules. As to conditions: B2m^tm2(HLA-A24/H-2Db/B2M)Tai mice; emulsion with Montanide ISA 51 VG subcutaneously on Day 1, Day 8, Day 15; lungs resected Day 28; compared with control group, p=0.0014, Student's t-test. Type of test: in vivo, mouse. How it is done: Eleven-week-old B2m^tm2(HLA-A24/H-2Db/B2M)Tai mice (J. Immunol.: 198, 516-527, 2017) were randomly divided into groups each consisting of 10 mice. The day of grouping was designated Day 0.
The B16F10.A24/SART2^93-101 cells (PLoS One: 13, e0199249, 2018) were cultured using the Dulbecco's Modified Eagle's Medium (Sigma-Aldrich) containing 10% FBS. The B16F10.A24/SART2^93-101 cells were subjected to subculture in an incubator at 37° C. in the presence of 5% CO2 two times a week at a ratio of 1:25 to 1:40.
On the day of grouping of mice (Day 0), the B16F10.A24/SART2^93-101 cell suspension prepared using D-PBS (FUJIFILM Wako Pure Chemical Corporation) was transplanted into the tail veins of mice at 1×10^6 cells/0.1 ml.
The mouse models are found to undergo recurrence of tumor cells transplanted into the blood in the lung. Accordingly, such mouse models can be regarded as simulating the recurrence mechanism caused by cancer metastasis in humans. By verifying the effects in such models, accordingly, the inhibitory effects on tumor metastasis and recurrence can be verified. […]
The lungs were resected 28 days after transplantation of the B16F10.A24/SART2^93-101 cells (Day 28), and the number of metastatic pulmonary nodules was visually counted.

On to “PEP5-RR-PEP9-RR-PEP6-RR-PEP4 (DYSARWNEIRRQIRPIFSNRRRVYDYNCHVDLRRLLQAEAPRL) [TPV06]”, for which the “number of metastatic pulmonary nodules” value is “significantly reduced”.

The values above are taken from patent US20230055953A1, “AGENT FOR ADJUVANT THERAPY” (TAIHO PHARMACEUTICAL CO., LTD., priority 2019, published 2023).
